Test results: US20250049831A1, “ANTIVIRAL USE OF BISE[…], AND BISEPOXYLIGNAN COMPOSITION AND PREPARATION OF BISE[…]” (priority 2021, published 2025)

System: COVID-19 virus
Assay: In-vitro antiviral CPE test in Vero E6 cells, COVID-19 virus
Format: cell-based

Row | SMILES | COVID-19 virus SI
1 | COc1ccc(C2OCC3C(c4ccc(OC(=O)C(C)c5ccc(CC(C)C)cc5)c(OC)c4)OCC23)cc1OC (stereo not shown) [compound 6] | 4.72
2 | COc1ccc([C@H]2OC[C@H]3[C@@H]2CO[C@H]3c2ccc(O[C@@H]3O[C@H](CO)[C@@H](O)[C@H](O)[C@H]3O)c(OC)c2)cc1OC [compound 2] | 30.50
3 | COc1ccc(C2OCC3C(c4ccc(OC)c(OC)c4)OCC23)cc1O (stereo not shown) [compound 3] | 5.33
4 | COc1cc(O)cc(C2OCC3C(c4ccc(OC5OC(CO)C(O)C(O)C5O)c(OC)c4)OCC23)c1 (stereo not shown) [compound 1] | 31.61
